Source: patent publication US10851116B2, “Bicyclic amines as novel JAK kinase inhibitors” (LEO Pharma A/S, priority 2017, dated 2020)

Experiments:
Type in all cases: biochemical
[1] = biological target: TYK2 (Homo sapiens (Human), UniProt P29597); test: JAK kinase assay (HTRF), TYK2; settings: catalytic domain (aa 871-1187), GST-tag, ATP at Km (13 μM)
Method: (§1) Human baculovirus-expressed JAK1, 2, 3 and TYK2 were purchased from Carna Biosciences, Inc. All four purified enzymes contain only the catalytic domain. JAK1 (aa 850-1154) and TYK2 (aa 871-1187) are expressed with an N-terminally fused GST-tag, and JAK2 and JAK3 with an N-terminally fused His-tag.
(§2) Inhibition of phosphorylation of a synthetic peptide was measured in an HTRF-based assay using the TK substrate-Biotin from the Cisbio HTRFKinEASE TK kit. First, 2 μl of TK solution (TK substrate-biotin in kinase buffer [1× enzymatic buffer from HTRFKinEASE TK kit, 1 mM DTT]) is added to a plate containing 1 μl prediluted compound (final assay concentration DMSO: 0.75%). Then, 5 μl kinase-ATP mix (prepared in kinase buffer) is added to the wells and the plates are incubated at RT for 20-30 min. For all four kinases a concentration of ATP that corresponded to the Km for ATP was used. The final concentrations of buffers, substrate, kinase and ATP were: JAK1: 50 mM Hepes buffer pH 7.0, 0.01% BSA, 10 mM MgCl2, 1 mM DTT, 7 μM ATP, 50 nM SEB, 1 μM TK Substrate-Biotin and 5 ng JAK1; JAK2: 50 mM Hepes buffer pH 7.0, 0.01% BSA, 5 mM MgCl2, 1 mM DTT, 4 μM ATP, 1 μM TK Substrate-Biotin and 0.1 ng JAK2; JAK3: 50 mM Hepes buffer pH 7.0, 0.01% BSA, 5 mM MgCl2, 1 mM DTT, 2 μM ATP, 1 μM TK Substrate-Biotin and 0.3 ng JAK3; TYK2: 50 mM Hepes buffer pH 7.0, 0.01% BSA, 5 mM MgCl2, 1 mM DTT, 13 μM ATP, 50 nM SEB, 1 μM TK Substrate-Biotin and 0.8 ng TYK2. Thereafter, the kinase reaction is stopped by adding 4 μl detection mix (final concentrations: 50 mM Hepes buffer pH 7.0, 0.01% BSA, 0.8 M KF, 20 mM EDTA, 42 nM Streptavidin-XL665 and 1:400 STK Ab Cryptate) and the plates are incubated overnight in the dark. The HTRF signal is read using an Envision plate reader.

[2] = biological target: JAK3 (Homo sapiens (Human), UniProt P52333); test: JAK kinase assay (HTRF), JAK3; settings: catalytic domain, His-tag, ATP at Km (2 μM)
Sequence of JAK3 (P52333 822-1111): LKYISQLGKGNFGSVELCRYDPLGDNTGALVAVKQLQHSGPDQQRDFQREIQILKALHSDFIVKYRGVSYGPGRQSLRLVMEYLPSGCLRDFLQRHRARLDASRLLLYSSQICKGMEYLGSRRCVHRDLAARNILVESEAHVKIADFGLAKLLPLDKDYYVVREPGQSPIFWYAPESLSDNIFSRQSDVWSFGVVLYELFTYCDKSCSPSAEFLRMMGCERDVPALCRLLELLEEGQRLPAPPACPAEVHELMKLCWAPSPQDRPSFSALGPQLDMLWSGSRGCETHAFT
Method: as §1, §2

[3] = biological target: JAK1 (Homo sapiens (Human), UniProt P23458); test: JAK kinase assay (HTRF), JAK1; settings: catalytic domain (aa 850-1154), GST-tag, ATP at Km (7 μM)
Sequence of JAK1 (P23458 850-1154): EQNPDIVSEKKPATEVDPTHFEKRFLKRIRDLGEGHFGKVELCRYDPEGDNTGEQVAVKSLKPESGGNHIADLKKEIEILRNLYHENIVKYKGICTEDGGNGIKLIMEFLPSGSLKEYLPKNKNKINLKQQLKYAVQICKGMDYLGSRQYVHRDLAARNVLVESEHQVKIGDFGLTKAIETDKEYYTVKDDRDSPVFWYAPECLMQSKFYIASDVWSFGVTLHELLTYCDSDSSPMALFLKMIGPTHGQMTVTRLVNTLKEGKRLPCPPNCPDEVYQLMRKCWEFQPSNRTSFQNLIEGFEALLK
Method: as §1, §2

[4] = biological target: JAK2 (Homo sapiens (Human), UniProt O60674); test: JAK kinase assay (HTRF), JAK2; settings: catalytic domain, His-tag, ATP at Km (4 μM)
Sequence of JAK2 (O60674 849-1124): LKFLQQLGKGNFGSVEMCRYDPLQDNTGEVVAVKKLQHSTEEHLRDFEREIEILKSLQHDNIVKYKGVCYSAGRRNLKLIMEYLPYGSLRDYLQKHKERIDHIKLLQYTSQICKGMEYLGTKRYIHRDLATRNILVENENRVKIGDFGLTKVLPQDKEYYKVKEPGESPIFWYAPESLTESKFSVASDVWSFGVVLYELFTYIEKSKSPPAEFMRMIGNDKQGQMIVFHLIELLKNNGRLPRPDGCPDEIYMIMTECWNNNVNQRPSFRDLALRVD
Method: as §1, §2

Sequence of TYK2 (P29597 871-1187): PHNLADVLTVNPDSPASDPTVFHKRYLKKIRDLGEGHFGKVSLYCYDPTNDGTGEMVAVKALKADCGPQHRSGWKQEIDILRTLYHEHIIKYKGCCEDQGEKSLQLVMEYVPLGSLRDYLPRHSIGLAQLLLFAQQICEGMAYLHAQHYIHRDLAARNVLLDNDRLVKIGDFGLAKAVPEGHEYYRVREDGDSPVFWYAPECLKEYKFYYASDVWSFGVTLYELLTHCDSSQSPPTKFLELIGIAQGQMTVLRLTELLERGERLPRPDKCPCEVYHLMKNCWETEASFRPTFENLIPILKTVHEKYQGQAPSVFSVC

| Structure (SMILES) | EC50 [1] [nM] | EC50 [2] [nM] | EC50 [3] [nM] | EC50 [4] [nM] |
| --- | --- | --- | --- | --- |
| CC[C@]12CN(C(C)=O)CC[C@H]1CCN(c1ncnc3[nH]ccc13)C2 (relative stereo) [Example 15, 1-[(4aR*,8aS*)-8a-ethyl-7-(7H-pyrrolo[2,3-d]pyrimidin-4-yl)-3,4,4a,5,6,8-hexahydro-1H-2,7-naphthyridin-2-yl]ethanone] | 1040 | 69 | 121 | 453 |
| CC[C@]12CN(c3ncnc4[nH]ccc34)CC[C@H]1CCN(S(N)(=O)=O)C2 [Example 19, (4aS,8aR)-8a-ethyl-7-(7H-pyrrolo[2,3-d]pyrimidin-4-yl)-3,4,4a,5,6,8-hexahydro-1H-2,7-naphthyridine-2-sulfonamide] | 1880 | 151 | 146 | 208 |
| C[C@]12CN(c3ncc(C#N)cn3)CC[C@H]1CCN(c1ncnc3[nH]ccc13)C2 (racemic) [Example 7, 2-[(4aR*,8aS*)-8a-methyl-7-(7H-pyrrolo[2,3-d]pyrimidin-4-yl)-3,4,4a,5,6,8-hexahydro-1H-2,7-naphthyridin-2-yl]pyrimidine-5-carbonitrile] | 740 | 5 | 46 | 140 |
| Cc1cc(C#N)cnc1N1CC[C@H]2CCN(c3ncnc4[nH]ccc34)C[C@@]2(C)C1 (racemic) [Example 11, 6-[(4aS*,8aR*)-8a-methyl-7-(7H-pyrrolo[2,3-d]pyrimidin-4-yl)-3,4,4a,5,6,8-hexahydro-1H-2,7-naphthyridin-2-yl]-5-methyl-pyridine-3-carbonitrile] | 976 | 85 | 86 | 380 |
| C[C@]12CN(c3ccc(C#N)cn3)CC[C@H]1CCN(c1ncnc3[nH]ccc13)C2 (racemic) [Example 5, 6-[(4aR*,8aS*)-8a-methyl-7-(7H-pyrrolo[2,3-d]pyrimidin-4-yl)-3,4,4a,5,6,8-hexahydro-1H-2,7-naphthyridin-2-yl]pyridine-3-carbonitrile] | 453 | 7 | 10 | 80 |
| C[C@@]12CN(c3ncnc4[nH]ccc34)CC[C@@H]1CN(S(C)(=O)=O)C2 (racemic) [Example 26, 4-[(3aS*,7aS*)-3a-methyl-2-methylsulfonyl-1,3,4,6,7,7a-hexahydropyrrolo[3,4-c]pyridin-5-yl]-7H-pyrrolo[2,3-d]pyrimidine] | 898 | 243 | 93 | 154 |
| C[C@@]12CN(c3ncnc4[nH]ccc34)CC[C@@H]1CN(S(=O)(=O)CC(F)(F)F)C2 (racemic) [Example 31, 4-[(3aS*,7aS*)-3a-methyl-2-(2,2,2-trifluoroethylsulfonyl)-1,3,4,6,7,7a-hexahydropyrrolo[3,4-c]pyridin-5-yl]-7H-pyrrolo[2,3-d]pyrimidine] | 3180 | 274 | 133 | 455 |
| CC[C@]12CN(c3nc(C#N)cs3)CC[C@H]1CCN(c1ncnc3[nH]ccc13)C2 (relative stereo) [Example 25, 2-[(4aR*,8aS*)-8a-ethyl-7-(7H-pyrrolo[2,3-d]pyrimidin-4-yl)-3,4,4a,5,6,8-hexahydro-1H-2,7-naphthyridin-2-yl]thiazole-4-carbonitrile] | 1110 | 29 | 46 | 139 |
| C[C@]12CN(c3cnc(C#N)cn3)CC[C@H]1CCN(c1ncnc3[nH]ccc13)C2 (racemic) [Example 4, 5-[(4aR*,8aS*)-8a-methyl-7-(7H-pyrrolo[2,3-d]pyrimidin-4-yl)-3,4,4a,5,6,8-hexahydro-1H-2,7-naphthyridin-2-yl]pyrazine-2-carbonitrile] | 148 | 4 | 4 | 25 |
| C[C@]12CN(C(=O)CC#N)C[C@H]1CCN(c1ncnc3[nH]ccc13)C2 (racemic) [Example 32, 3-[(3aS*,7aS*)-3a-methyl-5-(7H-pyrrolo[2,3-d]pyrimidin-4-yl)-1,3,4,6,7,7a-hexahydropyrrolo[3,4-c]pyridin-2-yl]-3-oxo-propanenitrile] | 307 | 162 | 16 | 67 |
| CCC12CNCCC1CCN(c1ncnc3[nH]ccc13)C2 (centres unmarked) [Intermediate 10, 8a-ethyl-7-(7H-pyrrolo[2,3-d]pyrimidin-4-yl)-1,2,3,4,4a,5,6,8-octahydro-2,7-naphthyridine] | 1980 | 157 | 16 | 25 |
| C[C@]12CN(c3ccc(S(C)(=O)=O)cn3)C[C@H]1CCN(c1ncnc3[nH]ccc13)C2 (racemic) [Example 35] | 2440 | 95 | 13 | 131 |
| C[C@]12CN(c3ncc(C#N)cn3)C[C@H]1CCN(c1ncnc3[nH]ccc13)C2 (racemic) [Example 41, 2-[(3aS*,7aS*)-3a-methyl-5-(7H-pyrrolo[2,3-d]pyrimidin-4-yl)-1,3,4,6,7,7a-hexahydropyrrolo[3,4-c]pyridin-2-yl]pyrimidine-5-carbonitrile] | 2040 | 70 | 49 | 216 |
| C[C@]12CN(C(=O)C3(C#N)CCCC3)C[C@H]1CCN(c1ncnc3[nH]ccc13)C2 (racemic) [Example 46, 1-[(3aS*,7aS*)-3a-methyl-5-(7H-pyrrolo[2,3-d]pyrimidin-4-yl)-1,3,4,6,7,7a-hexahydropyrrolo[3,4-c]pyridine-2-carbonyl]cyclopentanecarbonitrile] | 1510 | 705 | 97 | 625 |
| C[C@]12CN(c3ccc(S(C)(=O)=O)cc3)C[C@H]1CCN(c1ncnc3[nH]ccc13)C2 (racemic) [Example 38, 4-[(3aR*,7aS*)-3a-methyl-2-(4-methylsulfonylphenyl)-1,3,4,6,7,7a-hexahydropyrrolo[3,4-c]pyridin-5-yl]-7H-pyrrolo[2,3-d]pyrimidine] | 335 | 71 | 7 | 32 |
| C[C@]12CN(c3ncccc3CO)C[C@H]1CCN(c1ncnc3[nH]ccc13)C2 (racemic) [Example 36, [2-[(3aS*,7aS*)-3a-methyl-5-(7H-pyrrolo[2,3-d]pyrimidin-4-yl)-1,3,4,6,7,7a-hexahydropyrrolo[3,4-c]pyridin-2-yl]-3-pyridyl]methanol] | 1110 | 235 | 69 | 120 |
| Cc1nc(N2CC[C@H]3CCN(c4ncnc5[nH]ccc45)C[C@@]3(C)C2)ccc1C#N (racemic) [Example 10, 6-[(4aS*,8aR*)-8a-methyl-7-(7H-pyrrolo[2,3-d]pyrimidin-4-yl)-3,4,4a,5,6,8-hexahydro-1H-2,7-naphthyridin-2-yl]-2-methyl-pyridine-3-carbonitrile] | 3880 | 204 | 112 | 469 |
| C[C@@]12CN(c3ncnc4[nH]ccc34)CC[C@@H]1CCN(S(C)(=O)=O)C2 (racemic) [Example 13, (4aR*,8aS*)-8a-methyl-2-methylsulfonyl-7-(7H-pyrrolo[2,3-d]pyrimidin-4-yl)-3,4,4a,5,6,8-hexahydro-1H-2,7-naphthyridine] | 326 | 75 | 72 | 90 |
| C[C@]12CN(c3ccc(C#N)nn3)CC[C@H]1CCN(c1ncnc3[nH]ccc13)C2 (racemic) [Example 6, 6-[(4aR*,8aS*)-8a-methyl-7-(7H-pyrrolo[2,3-d]pyrimidin-4-yl)-3,4,4a,5,6,8-hexahydro-1H-2,7-naphthyridin-2-yl]pyridazine-3-carbonitrile] | 634 | 9 | 17 | 64 |
| CC[C@@]12CN(C#N)CC[C@@H]1CCN(c1ncnc3[nH]ccc13)C2 [Example 21, (4aS,8aR)-8a-ethyl-7-(7H-pyrrolo[2,3-d]pyrimidin-4-yl)-3,4,4a,5,6,8-hexahydro-1H-2,7-naphthyridine-2-carbonitrile] | 988 | 578 | 80 | 187 |
